By EC50 is commonly meant the concentration needed to bring the measured effect to its halfway point.

Starred links: 1 amine or outer side, 2 acyl side, 3 side chain; linkers in the order of their positions; H or OH if unused. Non-standard residues stand in square brackets, D forms with d. Residues, ends and D or L forms follow the SMILES beside them. Groups on a side chain read outwards from the residue. *: point of attachment. C20 diacid = O=C(O)CCCCCCCCCCCCCCCCCCC(=O)*; C18 diacid = O=C(O)CCCCCCCCCCCCCCCCC(=O)*; γGlu = O=C(O)[C@H](CCC(=O)[*:2])N[*:1]; αMeF = C[C@](N)(Cc1ccccc1)C(=O)O; AEEA = NCCOCCOCC(=O)O; Aib = CC(C)(N)C(=O)O

The target of test [1] is human GLP-1 receptor (hGLP-1R) (Homo sapiens, UniProt P43220). The experiment in a line: cAMP production (HTRF) in CHO cells expressing hGLP-1R. The class given is cell-based. Further details: expressed in transfected cells. The following applies: for EC50: Table 6, peptides modified at position 17, cAMP in CHO hGLP-1R cells, geometric mean, read-out: hGLP-1R EC50; for % Relative Potency Ratio: Table 6, % GLP-1R activity relative to GLP-1 / % GlucR activity relative to glucagon. The gist of the method: (§1)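 Cells were resuspended in assay buffer at batch-optimized density, typically 1×10^5 cells/mL for hGLP-1R and 2×10^5 cells/mL for hGCGR. After 30 min incubation at room temperature with compound, cAMP was measured by two-step HTRF. EC50 values came from 4-parameter logistic fits of % Delta F.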
On the technique in general: cAMP levels reflect the balance of adenylyl cyclase and phosphodiesterase activity.

Test [2] concerns the target human glucagon receptor (hGCGR) (Homo sapiens, UniProt P47871). Kind of test: cAMP production (HTRF) in CHO cells expressing hGCGR. Further details: expressed in transfected cells. The test is classed as cell-based. Particulars: Table 6, peptides modified at position 17; cAMP in CHO hGCGR cells; geometric mean; read-out: hGluc-R EC50. An outline of the steps:
as §1

Chain of human GLP-1 receptor (hGLP-1R) (P43220 24-463): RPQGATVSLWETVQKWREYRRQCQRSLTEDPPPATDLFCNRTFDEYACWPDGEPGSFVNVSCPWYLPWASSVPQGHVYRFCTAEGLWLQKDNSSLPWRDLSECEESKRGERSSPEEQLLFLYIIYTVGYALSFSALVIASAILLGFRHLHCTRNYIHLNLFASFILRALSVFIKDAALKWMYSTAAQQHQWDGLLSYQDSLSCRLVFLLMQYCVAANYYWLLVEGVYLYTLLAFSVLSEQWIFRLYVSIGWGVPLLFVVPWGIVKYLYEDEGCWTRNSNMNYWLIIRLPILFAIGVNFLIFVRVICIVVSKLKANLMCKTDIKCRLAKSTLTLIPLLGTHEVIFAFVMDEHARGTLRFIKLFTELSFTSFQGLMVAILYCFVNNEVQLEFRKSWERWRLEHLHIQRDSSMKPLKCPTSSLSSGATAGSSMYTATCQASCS
Chain of human glucagon receptor (hGCGR) (P47871 26-477): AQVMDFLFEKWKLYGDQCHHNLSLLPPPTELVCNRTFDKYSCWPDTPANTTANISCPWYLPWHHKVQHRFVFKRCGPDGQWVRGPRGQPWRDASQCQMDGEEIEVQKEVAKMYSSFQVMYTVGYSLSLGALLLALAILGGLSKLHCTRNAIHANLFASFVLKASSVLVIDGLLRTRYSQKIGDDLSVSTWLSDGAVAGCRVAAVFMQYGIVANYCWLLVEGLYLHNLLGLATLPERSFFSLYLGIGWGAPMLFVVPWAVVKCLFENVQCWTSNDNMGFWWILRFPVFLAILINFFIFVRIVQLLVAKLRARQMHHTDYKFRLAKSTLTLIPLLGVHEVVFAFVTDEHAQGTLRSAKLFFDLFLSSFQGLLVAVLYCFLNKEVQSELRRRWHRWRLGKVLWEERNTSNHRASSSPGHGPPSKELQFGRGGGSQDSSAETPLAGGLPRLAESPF

Regarding `CC(C)C[C@H](NC(=O)[C@H](Cc1c[nH]c2ccccc12)NC(=O)[C@H](CCCNC(=N)N)NC(=O)[C@@H](NC(=O)[C@H](Cc1ccccc1)NC(=O)[C@H](CC(=O)O)NC(=O)[C@H](CCC(N)=O)NC(=O)[C@H](C)NC(=O)[C@H](CCCNC(=N)N)NC(=O)[C@H](CCCCNC(=O)COCCOCCNC(=O)COCCOCCNC(=O)CC[C@H](NC(=O)CCCCCCCCCCCCCCCCCCC(=O)O)C(=O)O)NC(=O)[C@@H](NC(=O)[C@H](CC(=O)O)NC(=O)[C@H](CC(C)C)NC(=O)[C@](C)(Cc1ccccc1)NC(=O)[C@H](CCCCN)NC(=O)[C@H](CO)NC(=O)[C@@H](NC(=O)[C@H](CC(=O)O)NC(=O)[C@H](CO)NC(=O)[C@@H](NC(=O)[C@H](Cc1ccccc1)NC(=O)[C@@H](NC(=O)CNC(=O)[C@H](CCC(N)=O)NC(=O)C(C)(C)NC(=O)[C@@H](N)Cc1c[nH]cn1)[C@@H](C)O)[C@@H](C)O)C(C)C)[C@@H](C)O)C(C)C)C(=O)N[C@@H](CC(C)C)C(=O)N[C@@H](CCC(=O)O)C(=O)NC(C)(C)C(=O)N[C@@H](CCCCN)C(N)=O` [Peptide 479] (H-H[Aib]QGTFTSDVSK[αMeF]LDTK([AEEA-AEEA-γGlu-C20 diacid])RAQDFVRWLLE[Aib]K-NH2; N-terminus assumed), in test [1], the EC50 turned out to be 0.0342 nM and the “% Relative Potency Ratio” value is given as 12.0. In addition, the concentration giving a half-maximal response (EC50) in test [2] came to 0.207 nM.

With `CC(C)C[C@H](NC(=O)[C@H](Cc1c[nH]c2ccccc12)NC(=O)[C@H](CCC(N)=O)NC(=O)[C@@H](NC(=O)[C@H](Cc1ccccc1)NC(=O)[C@H](CC(=O)O)NC(=O)[C@H](CCCNC(=N)N)NC(=O)[C@H](C)NC(=O)[C@H](CCCNC(=N)N)NC(=O)[C@H](CCCCNC(=O)COCCOCCNC(=O)COCCOCCNC(=O)CC[C@H](NC(=O)CCCCCCCCCCCCCCCCC(=O)O)C(=O)O)NC(=O)[C@@H](NC(=O)[C@H](CC(=O)O)NC(=O)[C@H](CC(C)C)NC(=O)[C@](C)(Cc1ccccc1)NC(=O)[C@H](CCCCN)NC(=O)[C@H](CO)NC(=O)[C@@H](NC(=O)[C@H](CC(=O)O)NC(=O)[C@H](CO)NC(=O)[C@@H](NC(=O)[C@H](Cc1ccccc1)NC(=O)[C@@H](NC(=O)CNC(=O)[C@H](CCC(N)=O)NC(=O)C(C)(C)NC(=O)[C@@H](N)Cc1c[nH]cn1)[C@@H](C)O)[C@@H](C)O)C(C)C)[C@@H](C)O)C(C)C)C(=O)N[C@@H](CC(C)C)C(=O)N[C@@H](CCC(=O)O)C(=O)NC(C)(C)C(=O)N[C@@H](CCCCN)C(N)=O` [Peptide 480] (H-H[Aib]QGTFTSDVSK[αMeF]LDTK([AEEA-AEEA-γGlu-C18 diacid])RARDFVQWLLE[Aib]K-NH2; N-terminus assumed), in test [1], the EC50 is 0.0126 nM and the “% Relative Potency Ratio” value is on record as 21.4. The EC50 in test [2] stood at 0.136 nM.

Regarding `CC(C)C[C@H](NC(=O)[C@H](Cc1c[nH]c2ccccc12)NC(=O)[C@H](CCC(N)=O)NC(=O)[C@@H](NC(=O)[C@H](Cc1ccccc1)NC(=O)[C@H](CC(=O)O)NC(=O)[C@H](CCCNC(=N)N)NC(=O)[C@H](C)NC(=O)[C@H](CCCNC(=N)N)NC(=O)[C@H](CCCCNC(=O)COCCOCCNC(=O)COCCOCCNC(=O)CC[C@H](NC(=O)CCCCCCCCCCCCCCCCCCC(=O)O)C(=O)O)NC(=O)[C@@H](NC(=O)[C@H](CC(=O)O)NC(=O)[C@H](CC(C)C)NC(=O)[C@](C)(Cc1ccccc1)NC(=O)[C@H](CCCCN)NC(=O)[C@H](CO)NC(=O)[C@@H](NC(=O)[C@H](CC(=O)O)NC(=O)[C@H](CO)NC(=O)[C@@H](NC(=O)[C@H](Cc1ccccc1)NC(=O)[C@@H](NC(=O)CNC(=O)[C@H](CCC(N)=O)NC(=O)C(C)(C)NC(=O)[C@@H](N)Cc1c[nH]cn1)[C@@H](C)O)[C@@H](C)O)C(C)C)[C@@H](C)O)C(C)C)C(=O)N[C@@H](CC(C)C)C(=O)N[C@@H](CCC(=O)O)C(=O)NC(C)(C)C(=O)N[C@@H](CCCCN)C(N)=O` [Peptide 481] (H-H[Aib]QGTFTSDVSK[αMeF]LDTK([AEEA-AEEA-γGlu-C20 diacid])RARDFVQWLLE[Aib]K-NH2; N-terminus assumed), in test [1], the EC50 amounted to 0.0522 nM and the “% Relative Potency Ratio” value was 13.3. Moreover, the 50% effective concentration (EC50) in test [2] was 0.35 nM.

Regarding `CC(C)C[C@H](NC(=O)[C@H](Cc1c[nH]c2ccccc12)NC(=O)[C@H](CCC(N)=O)NC(=O)[C@@H](NC(=O)[C@H](Cc1ccccc1)NC(=O)[C@H](CC(=O)O)NC(=O)[C@H](CCC(N)=O)NC(=O)[C@H](C)NC(=O)[C@H](CCCNC(=N)N)NC(=O)[C@H](CCCCNC(=O)COCCOCCNC(=O)COCCOCCNC(=O)CC[C@H](NC(=O)CCCCCCCCCCCCCCCCC(=O)O)C(=O)O)NC(=O)[C@H](CO)NC(=O)[C@H](CCC(=O)O)NC(=O)[C@H](CC(C)C)NC(=O)[C@](C)(Cc1ccccc1)NC(=O)[C@H](CCCCN)NC(=O)[C@H](CO)NC(=O)[C@@H](NC(=O)[C@H](CC(=O)O)NC(=O)[C@H](CO)NC(=O)[C@@H](NC(=O)[C@H](Cc1ccccc1)NC(=O)[C@@H](NC(=O)CNC(=O)[C@H](CCC(N)=O)NC(=O)C(C)(C)NC(=O)[C@@H](N)Cc1c[nH]cn1)[C@@H](C)O)[C@@H](C)O)C(C)C)C(C)C)C(=O)N[C@@H](CC(C)C)C(=O)NC(C)(C)C(=O)N[C@@H](CCC(=O)O)C(=O)O` [Peptide 482] (H-H[Aib]QGTFTSDVSK[αMeF]LESK([AEEA-AEEA-γGlu-C18 diacid])RAQDFVQWLL[Aib]E-OH; N-terminus assumed), in test [1], the EC50 came to 0.19 nM and the “% Relative Potency Ratio” value worked out at 7.2. Moreover, the concentration for a half-maximal effect (EC50) in test [2] is 0.691 nM.

Take `CC(C)C[C@H](NC(=O)[C@H](Cc1c[nH]c2ccccc12)NC(=O)[C@H](CCC(N)=O)NC(=O)[C@@H](NC(=O)[C@H](Cc1ccccc1)NC(=O)[C@H](CC(=O)O)NC(=O)[C@H](CCC(N)=O)NC(=O)[C@H](C)NC(=O)[C@H](CCCNC(=N)N)NC(=O)[C@H](CCCCNC(=O)COCCOCCNC(=O)COCCOCCNC(=O)CC[C@H](NC(=O)CCCCCCCCCCCCCCCCC(=O)O)C(=O)O)NC(=O)[C@@H](NC(=O)[C@H](CC(=O)O)NC(=O)[C@H](CC(C)C)NC(=O)[C@](C)(Cc1ccccc1)NC(=O)[C@H](CCCCN)NC(=O)[C@H](CO)NC(=O)[C@@H](NC(=O)[C@H](CC(=O)O)NC(=O)[C@H](CO)NC(=O)[C@@H](NC(=O)[C@H](Cc1ccccc1)NC(=O)[C@@H](NC(=O)CNC(=O)[C@H](CCC(N)=O)NC(=O)C(C)(C)NC(=O)[C@@H](N)Cc1c[nH]cn1)[C@@H](C)O)[C@@H](C)O)C(C)C)[C@@H](C)O)C(C)C)C(=O)N[C@@H](CC(C)C)C(=O)NC(C)(C)C(=O)N[C@@H](CCC(=O)O)C(=O)O` [Peptide 483]: in test [1], the EC50 turned out to be 0.178 nM and the “% Relative Potency Ratio” value is 1.9. The EC50 in test [2] was 0.169 nM.

Values taken from patent US20250353891A1 (MEDIMMUNE LIMITED, priority 2022, published 2025).
